According to patent US10227344B2, “CK2 inhibitors, compositions and methods thereof” (Polaris Pharmaceuticals, Inc., priority 2016, dated 2019):

Key:
Format in all cases: cell-based
MeWO = assay: Cancer cell panel, cell viability (resazurin): Melanoma, MeWO; details: 72 hours, labelled drug combined with Example 3
OVCAR-3 = assay: Cancer cell panel, cell viability (resazurin): Ovarian, OVCAR-3; details: OVCAR-3 (Ovarian), 72 hours; labelled drug combined with Example 3
SK-MEL-3 = assay: Cancer cell panel, cell viability (resazurin): Melanoma, SK-MEL-3; details: SK-MEL-3 (Melanoma), 72 hours; labelled drug combined with Example 3
LoVo = assay: Cancer cell panel, cell viability (resazurin): Colon, LoVo; details: 72 hours, labelled drug combined with Example 3
A375 = assay: Cancer cell panel, cell viability (resazurin): Melanoma, A375; details: 72 hours, labelled drug combined with Example 3
HCT116 = assay: Cancer cell panel, cell viability (resazurin): Colon, HCT116; details: 72 hours, labelled drug combined with Example 3
Colo205 = assay: Cancer cell panel, cell viability (resazurin): Colon, Colo205; details: 72 hours, labelled drug combined with Example 3
H460 = assay: Cancer cell panel, cell viability (resazurin): NSCLC, H460; details: 72 hours, labelled drug combined with Example 3
EOL-1 = assay: Cancer cell panel, cell viability (resazurin): Leukemia, EOL-1; details: EOL-1 (Leukemia), 72 hours; labelled drug combined with Example 3
786-O = assay: Cancer cell panel, cell viability (resazurin): Renal, 786-O; details: 786-O (Renal), 72 hours; labelled drug combined with Example 3
WM-115 = assay: Cancer cell panel, cell viability (resazurin): Melanoma, WM-115; details: WM-115 (Melanoma), 72 hours; labelled drug combined with Example 3
A2780 = assay: Cancer cell panel, cell viability (resazurin): Ovarian, A2780; details: 72 hours, labelled drug combined with Example 3
Mia-Paca-2 = assay: Cancer cell panel, cell viability (resazurin): Pancreatic, Mia-Paca-2; details: Mia-Paca-2 (Pancreatic), 72 hours; labelled drug combined with Example 3
Caki-1 = assay: Cancer cell panel, cell viability (resazurin): Renal, Caki-1; details: Caki-1 (Renal), 72 hours; labelled drug combined with Example 3
H1299 = assay: Cancer cell panel, cell viability (resazurin): NSCLC, H1299; details: 72 hours, labelled drug combined with Example 3
MOLT4 = assay: Cancer cell panel, cell viability (resazurin): Leukemia, MOLT4; details: 72 hours, labelled drug combined with Example 3
ZR-75-1 = assay: Cancer cell panel, cell viability (resazurin): Breast, ZR-75-1; details: ZR-75-1 (Breast), 72 hours; labelled drug combined with Example 3
RPMI8226 = assay: Cancer cell panel, cell viability (resazurin): multiple myeloma, RPMI8226; details: 72 hours, labelled drug combined with Example 3
HL60 = assay: Cancer cell panel, cell viability (resazurin): Leukemia, HL60; details: 72 hours, labelled drug combined with Example 3
K562 = assay: Cancer cell panel, cell viability (resazurin): Leukemia, K562; details: 72 hours, labelled drug combined with Example 3
SK-MEL-24 = assay: Cancer cell panel, cell viability (resazurin): Melanoma, SK-MEL-24; details: SK-MEL-24 (Melanoma), 72 hours; labelled drug combined with Example 3
H23 = assay: Cancer cell panel, cell viability (resazurin): NSCLC, H23; details: 72 hours, labelled drug combined with Example 3
MDA-MB-157 = assay: Cancer cell panel, cell viability (resazurin): Breast, MDA-MB-157; details: MDA-MB-157 (Breast), 72 hours; labelled drug combined with Example 3
Panc-1 = assay: Cancer cell panel, cell viability (resazurin): Pancreatic, Panc-1; details: Panc-1 (Pancreatic), 72 hours; labelled drug combined with Example 3
Caki-2 = assay: Cancer cell panel, cell viability (resazurin): Renal, Caki-2; details: Caki-2 (Renal), 72 hours; labelled drug combined with Example 3
DLD-1 = assay: Cancer cell panel, cell viability (resazurin): Colon, DLD-1; details: DLD-1 (Colon), 72 hours; labelled drug combined with Example 3
HT29 = assay: Cancer cell panel, cell viability (resazurin): Colon, HT29; details: 72 hours, labelled drug combined with Example 3
BT-20 = assay: Cancer cell panel, cell viability (resazurin): Breast, BT-20; details: BT-20 (Breast), 72 hours; labelled drug combined with Example 3
H1975 = assay: Cancer cell panel, cell viability (resazurin): NSCLC, H1975; details: 72 hours, labelled drug combined with Example 3
A549 = assay: Cancer cell panel, cell viability (resazurin): NSCLC, A549; details: 72 hours, labelled drug combined with Example 3
U87MG = assay: Cancer cell panel, cell viability (resazurin): Glioblastoma, U87MG; details: 72 hours, labelled drug combined with Example 3
U266 = assay: Cancer cell panel, cell viability (resazurin): multiple myeloma, U266; details: 72 hours, labelled drug combined with Example 3
MDA-MB-231 = assay: Cancer cell panel, cell viability (resazurin): Breast, MDA-MB-231; details: MDA-MB-231 (Breast), 72 hours; labelled drug combined with Example 3
BxPC3 = assay: Cancer cell panel, cell viability (resazurin): Pancreatic, BxPC3; details: 72 hours, labelled drug combined with Example 3
Caov-3 = assay: Cancer cell panel, cell viability (resazurin): Ovarian, Caov-3; details: Caov-3 (Ovarian), 72 hours; labelled drug combined with Example 3

With `CC(=O)Nc1cccc(-n2c(=O)n(C3CC3)c(=O)c3c(Nc4ccc(I)cc4F)n(C)c(=O)c(C)c32)c1` [Trametinib, trametinib] the “synergy, additivity or antagonism of the combination of Example 3 with the anti-cancer drug” value (“synergy, additivity or antagonism” below) (MeWO) was “+ + (Slight synergy relative to each agent alone (CI = 0.75-0.9 by Bliss Independence Model))”, the “synergy, additivity or antagonism” value (OVCAR-3) was “+ + (Slight synergy relative to each agent alone (CI = 0.75-0.9 by Bliss Independence Model))” and the “synergy, additivity or antagonism” value (SK-MEL-3) was “+ (Additive relative to each agent alone (CI = 0.9-1 by Bliss Independence Model and <0.9 by Highest Single Agent Model))”. For the same compound, the “synergy, additivity or antagonism” value (LoVo) was “+ + (Slight synergy relative to each agent alone (CI = 0.75-0.9 by Bliss Independence Model))”, the “synergy, additivity or antagonism” value (A375) was “+ + (Slight synergy relative to each agent alone (CI = 0.75-0.9 by Bliss Independence Model))” and the “synergy, additivity or antagonism” value (HCT116) was “+ + + (Synergy relative to each agent alone (CI = 0.4-0.74 by Bliss Independence Model))”. The “synergy, additivity or antagonism” value (Colo205) was “+ + + (Synergy relative to each agent alone (CI = 0.4-0.74 by Bliss Independence Model))”, the “synergy, additivity or antagonism” value (H460) was “+ + + (Synergy relative to each agent alone (CI = 0.4-0.74 by Bliss Independence Model))” and the “synergy, additivity or antagonism” value (EOL-1) was “+ + (Slight synergy relative to each agent alone (CI = 0.75-0.9 by Bliss Independence Model))”. For the same compound, the “synergy, additivity or antagonism” value (786-O) was “+ + + (Synergy relative to each agent alone (CI = 0.4-0.74 by Bliss Independence Model))”, the “synergy, additivity or antagonism” value (WM-115) was “+ + (Slight synergy relative to each agent alone (CI = 0.75-0.9 by Bliss Independence Model))” and the “synergy, additivity or antagonism” value (A2780) was “+ + (Slight synergy relative to each agent alone (CI = 0.75-0.9 by Bliss Independence Model))”. For the same compound, the “synergy, additivity or antagonism” value (Mia-Paca-2) was “+ (Additive relative to each agent alone (CI = 0.9-1 by Bliss Independence Model and <0.9 by Highest Single Agent Model))”, the “synergy, additivity or antagonism” value (Caki-1) was “+ (Additive relative to each agent alone (CI = 0.9-1 by Bliss Independence Model and <0.9 by Highest Single Agent Model))” and the “synergy, additivity or antagonism” value (H1299) was “+ (Additive relative to each agent alone (CI = 0.9-1 by Bliss Independence Model and <0.9 by Highest Single Agent Model))”. The “synergy, additivity or antagonism” value (MOLT4) was “+ (Additive relative to each agent alone (CI = 0.9-1 by Bliss Independence Model and <0.9 by Highest Single Agent Model))”, the “synergy, additivity or antagonism” value (ZR-75-1) was “+ + (Slight synergy relative to each agent alone (CI = 0.75-0.9 by Bliss Independence Model))” and the “synergy, additivity or antagonism” value (RPMI8226) was “+ + (Slight synergy relative to each agent alone (CI = 0.75-0.9 by Bliss Independence Model))”. For the same compound, the “synergy, additivity or antagonism” value (HL60) was “+ + (Slight synergy relative to each agent alone (CI = 0.75-0.9 by Bliss Independence Model))”, the “synergy, additivity or antagonism” value (K562) was “+ (Additive relative to each agent alone (CI = 0.9-1 by Bliss Independence Model and <0.9 by Highest Single Agent Model))” and the “synergy, additivity or antagonism” value (SK-MEL-24) was “+ + (Slight synergy relative to each agent alone (CI = 0.75-0.9 by Bliss Independence Model))”. The “synergy, additivity or antagonism” value (H23) was “+ + + (Synergy relative to each agent alone (CI = 0.4-0.74 by Bliss Independence Model))”, the “synergy, additivity or antagonism” value (MDA-MB-157) was “+ + (Slight synergy relative to each agent alone (CI = 0.75-0.9 by Bliss Independence Model))” and the “synergy, additivity or antagonism” value (Panc-1) was “+ (Additive relative to each agent alone (CI = 0.9-1 by Bliss Independence Model and <0.9 by Highest Single Agent Model))”. For the same compound, the “synergy, additivity or antagonism” value (Caki-2) was “− − − (Strongly antagonistic relative to each agent alone (CI > 1.49 by Highest Single Agent Model))”, the “synergy, additivity or antagonism” value (DLD-1) was “+ + + (Synergy relative to each agent alone (CI = 0.4-0.74 by Bliss Independence Model))” and the “synergy, additivity or antagonism” value (HT29) was “+ (Additive relative to each agent alone (CI = 0.9-1 by Bliss Independence Model and <0.9 by Highest Single Agent Model))”. The “synergy, additivity or antagonism” value (BT-20) was “+ + + (Synergy relative to each agent alone (CI = 0.4-0.74 by Bliss Independence Model))”, the “synergy, additivity or antagonism” value (H1975) was “+ + + (Synergy relative to each agent alone (CI = 0.4-0.74 by Bliss Independence Model))” and the “synergy, additivity or antagonism” value (A549) was “+ + + + (Strong synergy relative to each agent alone (CI < 0.4 by Bliss Independence Model))”. The “synergy, additivity or antagonism” value (U87MG) was “+ + (Slight synergy relative to each agent alone (CI = 0.75-0.9 by Bliss Independence Model))”, the “synergy, additivity or antagonism” value (U266) was “+ + (Slight synergy relative to each agent alone (CI = 0.75-0.9 by Bliss Independence Model))” and the “synergy, additivity or antagonism” value (MDA-MB-231) was “+ + (Slight synergy relative to each agent alone (CI = 0.75-0.9 by Bliss Independence Model))”. The “synergy, additivity or antagonism” value (BxPC3) was “+ + + + (Strong synergy relative to each agent alone (CI < 0.4 by Bliss Independence Model))” and the “synergy, additivity or antagonism” value (Caov-3) was “+ + (Slight synergy relative to each agent alone (CI = 0.75-0.9 by Bliss Independence Model))”.
